Where two headings read alike, the source gives them in different places. Blank lines part the entries; values can stand above or below the compound they belong to.
How the values were obtained:
[1] = tested on: obese female Zucker rats; assay: Daily oral gavage in obese female Zucker rats: serum nonHDL cholesterol, HDL cholesterol, triglycerides, glycemic control indicators, body weight; format: in vivo, rat (Zucker fatty Crl:(Zuc)-faBR); details: Rattus norvegicus, 100 mg/kg daily oral gavage
Protocol: Ten- to twelve-week old (400-500 grams) female Zucker fatty rats Crl: (Zuc)-faBR were obtained from Charles River Laboratories. Animals were acclimated to the laboratory environment for seven days. During the acclimation and study period, animals were housed by group in shoebox polycarbonate cages on Cellu-Dri bedding. The temperature and humidity in the animals' quarters (68-78° F.; 30-75% RH) were monitored and the airflow in the room was sufficient to provide several exchanges per hour with 100% fresh filtered air. An automatic timing device provided an alternating 12-hour cycle of light and dark. Rats received pelleted Purina Laboratory Rodent Chow® (5001) prior to and during the drug intervention period except for a 6-hour phase prior to blood sampling. Fresh water was supplied ad libitum via an automatic watering system. Compounds were dissolved, suspended by mixing in a dosing vehicle consisting of 1.5% carboxymethylcellulose/0.2% Tween 20 or 20% ethanol and 80% polyethylene glycol-200 [v/v]. Dose volume of vehicle or vehicle plus each compound was set at 0.25% of body weight in order to deliver the appropriate dose. Doses were administered daily by oral gavage, approximately between 8-10 AM. Regarding blood sampling, animals were fasted for 6 hours prior to all blood collections. Prior to and after 7 days of dosing, a 1.0- to 2.0-mL sample of blood was collected by administering O2/CO2 anesthesia and bleeding from the orbital venous plexus. Following 14 days of dosing, blood was collected by cardiac puncture after euthanasia with CO2. All blood samples were processed for separation of serum and stored at −80° C. until analysis. Commercially available kits were used to determine serum triglycerides (Roche Diagnostic Corporation, Kit No. 148899 or Boehringer Mannheim, Kit No. 1488872), total cholesterol (Roche Diagnostic Corporation, Kit No. 450061), non-esterified fatty acids (Wako Chemicals, Kit No. 994-75409) and β-hydroxybutyrate (Wako Chemicals, Kit No. 417-73501 or Sigma Kit. No. 310-0) on a Hitachi 912 Automatic Analyzer (Roche Diagnostic Corporation). In some instances, an in-house cholesterol reagent was used to determine total serum cholesterol levels. Serum lipoprotein cholesterol levels were determined by lipoprotein profile analysis. Lipoprotein profiles were analyzed using gel-filtration chromatography on a Superose 6HR (1×30 cm) column equipped with on-line detection of total cholesterol as described by Kieft et al (Kieft, K. A.; Bocan, T. M.; Krause, B. R. Rapid on-line determination of cholesterol distribution among plasma lipoproteins after high-performance gel filtration chromatography. J. Lipid Res. 1991, 32, 859-866.). The total cholesterol content of each lipoprotein was calculated by multiplying the independent values determined for serum total cholesterol by the percent area of each lipoprotein in the profile. The percent body weight gain and the ratio of liver to body weight is also determined. Selected data are shown as absolute values or as a percent change of the pretreatment values in Tables 8 and 9.
Select compounds (214c, 210c, and 210g) were further evaluated in the Zucker rat by performing a full dose response and measuring additional serum variables including markers for diabetes (Tables 10-12).

[2] = tested on: Lipid Synthesis in Primary Rat Hepatocytes; assay: Inhibition of lipid synthesis ([1-14C]-acetate incorporation) in primary cultures of rat hepatocytes; format: cell-based, rat (Sprague-Dawley); details: Hepatocyte, 4 h, 4 h incubation with [1-14C]-acetate, 0-300 μM compound, Table 7, ranges where confidence of estimate is insufficient to assign a value
Protocol: Compounds were tested for inhibition of lipid synthesis in primary cultures of rat hepatocytes. […] Sprague-Dawley rats were anesthetized with intraperitoneal injection of sodium pentobarbital (80 mg/kg). Rat hepatocytes were isolated essentially as described by the method of Seglen (Seglen, P. O. Hepatocyte suspensions and cultures as tools in experimental carcinogenesis. J. Toxicol. Environ. Health 1979, 5, 551-560). Hepatocytes were suspended in Dulbecco's Modified Eagles Medium containing 25 mM D-glucose, 14 mM HEPES, 5 mM L-glutamine, 5 mM leucine, 5 mM alanine, 10 mM lactate, 1 mM pyruvate, 0.2% bovine serum albumin, 17.4 mM non-essential amino acids, 20% fetal bovine serum, 100 nM insulin and 20 μg/mL gentamycin) and plated at a density of 1.5×10^5 cells/cm^2 on collagen-coated 96-well plates. Four hours after plating, media was replaced with the same media without serum. […] Lipid synthesis incubation conditions were initially assessed to ensure the linearity of [1-^14C]-acetate incorporation into hepatocyte lipids for up to 4 hours. Hepatocyte lipid synthesis inhibitory activity was assessed during incubations in the presence of 0.25 μCi [1-^14C]-acetate/well (final radiospecific activity in assay is 1 Ci/mol) and 0, 1, 3, 10, 30, 100 or 300 μM of compounds for 4 hours. […] Lipid radioactivity was assessed by scintillation spectroscopy in a Packard TopCount NXT.

[3] = 168 h, 1 wk, Table 9, read-out: HDL-Cholesterol, Percent Change from Pre-Treatment, 1 wk

SMILES: CC(C)(CCCCCC(=O)CCCCCC(C)(C)C(=O)O)C(=O)O
change in vivo at 100 mg/kg [1, 3]: 70%

SMILES: CC(C)(CCCCCCCC(=O)CCCCCCCC(C)(C)C(=O)O)C(=O)O [drawing 538]
IC50 [2]: 5 µM

SMILES: CC(C)(CCCCCCCC(=O)CCCCCCCC(C)(C)C(=O)O)C(=O)O [drawing 559]
change in vivo at 100 mg/kg [1, 3]: 44%
change in vivo at 100 mg/kg ([1]; 168 h, 1 wk, Table 9, read-out: NonHDL-Cholesterol, Percent Change from Pre-Treatment, 1 wk): -80%
change in vivo at 100 mg/kg ([1]; 168 h, 1 wk, Table 9, read-out: TG, Percent Change from Pre-Treatment, 1 wk): -85%
change in vivo at 100 mg/kg ([1]; 336 h, 2 wk, Table 9, read-out: HDL-Cholesterol, Percent Change from Pre-Treatment, 2 wk): 86%
change in vivo at 100 mg/kg ([1]; 336 h, 2 wk, Table 9, read-out: NonHDL-Cholesterol, Percent Change from Pre-Treatment, 2 wk): -46%
change in vivo at 100 mg/kg ([1]; 336 h, 2 wk, Table 9, read-out: TG, Percent Change from Pre-Treatment, 2 wk): -63%

Results, then the compound that gave them:

melting point: 99 to 103 °C
SMILES: O=C(CCCCC1(C(=O)O)CCCC1)CCCCC1(C(=O)O)CCCC1 [Compound 107g, 1-[9-(1-Carboxycyclopentyl)-5-oxononyl]-1-cyclopentanecarboxylic acid]

melting point: 122 to 123 °C
SMILES: O=C(CCCCCC1(C(=O)O)CC1)CCCCCC1(C(=O)O)CC1 [Compound 107l, 1-[11-(1-Carboxycyclopropyl)-6-oxoundecyl]-1-cyclopropanecarboxylic acid]

melting point: 78 to 85 °C
SMILES: O=C(CCCCCC1(C(=O)O)CCCC1)CCCCCC1(C(=O)O)CCCC1 [Compound 107m, 1-[11-(1-Carboxycyclopentyl)-6-oxoundecyl]-1-cyclopentanecarboxylic acid]

melting point: 74 to 77 °C
SMILES: CC(C)(CCCCCCCC(=O)CCCCCCCC(C)(C)C(=O)O)C(=O)O [Compound 107n, 10-Oxo-2,2,18,18-tetramethyl-nonadecanedioic acid]

From patent US8642653B2, “Ketone compounds and compositions for cholesterol management and related uses” (Esperion Therapeutics, Inc., priority 2003, dated 2014)
